Structures can show the parent of a compound that is named as a salt. Where two headings read alike, the source gives them in different places.
Key:
[1] = test system: spontaneously hypertensive rats (SHR); assay: antihypertensive evaluation, systolic blood pressure, single oral dose, conscious SHR (tail cuff); assay type: in vivo
Experimental: (§1) The percent recovery is calculated by dividing the maximum decrease in mean arterial blood pressure (mm Hg) caused by tilt into the amount of rise in blood pressure at 15 seconds after initiating tilt. The antihypertensive as well as teh alpha1 -adrenergic blocking properties of the novel quinazolinedione piperazines were evaluated and set forth in Table 2.
The antihypertensive evaluation followed the following procedure:
Adult male spontaneously hypertensive rats (SHR) were placed in restrainers in a chamber warmed to 32° C. A standard indirect method employing a pneumatic pulse transducer and inflatable tail cuff was used to measure systolic blood pressure (SBP) in the conscious state. After baseline SBP were recorded, groups of 4 SHR received a single oral dose of drug or vehicle (0.5% methylcellulose) administered with a gavage tube. SBP's were obtained at 1/2, 1, 2, 3 and 4 hours post treatment. Changes in SBP's were statistically compared to the vehicle effect using Students t test, at p ε0.05.

α1 -adrenergic = α1 -adrenergic blockade: inhibition of phenylephrine-induced increases in diastolic blood pressure in the anesthetized dog; assay type: in vivo; conditions: for Percent Inhibition of Phenylephrin-Induced Pressor Responses: dog
Experimental: The α1 -adrenergic blockade: inhibition of phenylephrine-inducedincreases in diastolic blood pressure in the anesthetized dog was determined according to the method set forth in the following literature reference:
Arunlakshana, O, and Schild, H. O. (1959). Some Quantitative Uses of Drug Antagonists. Br. J. Pharmac. Chemother., 14:48-58.
The procedure is as follows:
Dogs are anesthetized and bilaterally vagotomized. A femoral artery and vein are cannulated for detection of diastolic blood pressure and drug administration, respectively. Percent inhibition of alpha adrenergic receptor antagonism is quantitiated by determining the dose-response (increase in diastolic pressure) relationship of phenylephrine before and after various doses of the antagonist. Statistical analysis of percent inhibition is calculated by use of the variance component estimation test. In addition, the Dose Ratio (DR20) may be calculated for potency comparisons and is defined as the dose of antagonist required to produce an agonist dose ratio of 20.

acetylcholine = assay: autonomic tests: acetylcholine blood pressure responses; assay type: in vivo; conditions: dogs
[2] = test system: spontaneously hypertensive rats; assay: bioavailability comparison, MABP in conscious cannulated SHR (i.v. and oral); assay type: in vivo, spontaneously hypertensive rats (SHR); conditions: for ED10: Rattus norvegicus
Experimental: (§2) The bioavailability comparison was determined in conscious direct cannulated spontaneously hypertensive rats. Briefly, the SHRs were anesthetized with ether and a carotid arterial catheter was inserted for measurement of arterial blood pressure while a jugular catheter was inserted for i.v. drug administration. For oral dosing, a catheter was also passed via the esophagus into the stomach. All catheters were exteriorized at the nape of the neck and animals were placed in restrainers and allowed to recover from surgery. Blood pressure was continuously recorded. Drugs were dissolved in 5% dextrose in water and administered as a bolus at time zero. Bioavailability results are presented in Table 3. | (a) I.V. bolus dose that lowers MABP in conscious SHR by 10%. | (b) Oral gavage dose that lowers MABP in conscious cannulated SHR by 10%. | (c) Bioavailability ratio with small numbers (close to unity) indicating | good bioavailability.

[3] = as above; assay type: in vivo, spontaneously hypertensive rats (SHR); conditions: rat, in vivo; SHR; small numbers (close to unity) indicate good bioavailability; read-out: Ratio P.O./I.V. (bioavailability ratio)
Experimental: as §2

[4] = test system: tilt reflex recovery response; set-up: species or system mongrel dogs; conditions: dog, in vivo
Experimental: as §1, with “The tilt reflex recovery response is determined as follows: Adult mongrel dogs of either sex are anesthetized with pentobarbital sodium, secured to a tilt table and surgically prepared for measurement of blood pressure and heart rate. Animals are tilted and the percent recovery of the tilt response in the blood pressure is quantitated. The percent” for “The percent”

histamine = assay: autonomic tests: histamine blood pressure responses; assay type: in vivo; conditions: dogs
[5] = iv, conscious SHR, I.V. bolus, read-out: I.V. E.D.-10% (I.V. bolus dose that lowers MABP by 10%)
[6] = conscious cannulated SHR, oral gavage, read-out: P.O. E.D.-10% (oral gavage dose that lowers MABP by 10%)

Row | Structure (SMILES) | Peak Change in Systolic Blood Pressure ([1]; 0.5 mg/kg PO) [mm Hg] | Peak Change in Systolic Blood Pressure ([1]; 0.1 mg/kg PO) [mm Hg] | anticholinergic effect (inhibition of acetylcholine blood pressure responses) (acetylcholine) | ED10 [2, 5] [mg/kg] | ED10 [2, 6] [mg/kg] | selectivity ratio [3] | inhibition of the tilt reflex recovery response [4] | antihistaminic effect (inhibition of histamine blood pressure responses) (histamine) | also measured
1 | COc1ccccc1N1CCN(CCn2c(=O)[nH]c3c(Cl)cc(OC)c(OC)c3c2=O)CC1 [B, 8-chloro-3-{2-[4-(2-methoxyphenyl)-1-piperazinyl]ethyl}-5,6-dimethoxyquinazolin-2,4-(1H,3H)-dione] |  |  |  |  |  |  |  |  | Peak Change in Systolic Blood Pressure ([1]; 10 mg/kg PO): -72 mm Hg; Percent Inhibition of Phenylephrin-Induced Pressor Responses (α1 -adrenergic; 0.03 mg/kg IV): 60%; Percent Inhibition of Phenylephrin-Induced Pressor Responses (α1 -adrenergic; 0.2 mg/kg IV): 93%
2 | COc1cc2[nH]c(=O)n(CCN3CCN(c4ccccc4OC)CC3)c(=O)c2cc1OC [C, 6,7-dimethoxy-3-{2-[4-(2-methoxyphenyl)-1-piperazinyl]ethyl}-quinazolin-2,4-(1H,3H)dione] | -69 |  |  |  |  |  |  |  | Percent Inhibition of Phenylephrin-Induced Pressor Responses (α1 -adrenergic; 0.1 mg/kg IV): 95%
3 | COc1ccccc1N1CCN(CCn2c(=O)[nH]c3ccc(OC)c(OC)c3c2=O)CC1 [Compound A, 3-{2-[4-(2-Methoxyphenyl)-1-piperazinyl]ethyl}-5,6-dimethoxyquinazolin-2,4-(1H,3H)dione monohydrobromide] | -85 | -58 | almost no antihistaminic or anticholinergic effect | 1.8 | 70 | 38.9 | 37%±12 | almost no antihistaminic or anticholinergic effect | oral hypotensive / antihypertensive activity (in words) ([1]; oral): orally effective antihypertensive profile; DR20 (dose of antagonist required to produce an agonist dose ratio of 20) (α1 -adrenergic; anesthetized dog, IV, phenylephrine): 0.0203 mg/kg; Percent Inhibition of Phenylephrin-Induced Pressor Responses (α1 -adrenergic; 0.0203 (DR20) mg/kg IV): 100%; bioavailability profile (in words) ([2]; oral/i.v. ratios compared with prior art): unexpected superior bioavailability
4 | COc1ccccc1N1CCN(CCn2c(=O)[nH]c3ccccc3c2=O)CC1 [Compound Z, reference compound] |  | -40 | inhibits histamine and acetylcholine blood pressure responses | 0.5 | 370 | 740 | 83%±8 | inhibits histamine and acetylcholine blood pressure responses | Percent Inhibition of Phenylephrin-Induced Pressor Responses (α1 -adrenergic; 0.010 mg/kg IV): 100%
5 | Br.COc1ccccc1N1CCN(CCn2c(=O)[nH]c3ccc(O)c(O)c3c2=O)CC1.O [D, 5,6-Dihydroxy-3-{2-[4-(2-methoxyphenyl)-1-piperazinyl]ethyl}-quinazolin-2,4(1H,3H)-dione monohydrobromide monohydrate] |  | -60 |  |  |  |  |  |  | Peak Change in Systolic Blood Pressure ([1]; 0.05 mg/kg PO): -58 mm Hg; Percent Inhibition of Phenylephrin-Induced Pressor Responses (α1 -adrenergic; 0.0303 mg/kg IV): 89%
6 | COc1ccc(N2CCN(CCn3c(=O)[nH]c4ccc(OC)c(OC)c4c3=O)CC2)cc1 [E] |  |  |  |  |  |  |  |  | Peak Change in Systolic Blood Pressure ([1]; 20 mg/kg PO): -50 mm Hg; Percent Inhibition of Phenylephrin-Induced Pressor Responses (α1 -adrenergic; 1.0 mg/kg IV): 80%
